#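 Exposure lasted 48 hours, with cells grown in 96-well plates and compounds tested at five concentrations. The concentration for 50% growth inhibition is given as GI50.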 Calls of active or inactive are those of the source. Rule as the data show it: active = GI50 up to about 1.1 µM and inactive = higher.
# Legend:
# Test in all cases: NCI anticancer screen, dose series, 48 h
# M14 = test system: M14
# OVCAR-3 = test system: OVCAR-3
# NCI-H23 = test system: NCI-H23
# SK-MEL-2 = test system: SK-MEL-2
# T47D = test system: T47D
# UACC-62 = test system: UACC-62
# BT-549 = test system: BT-549
# SF-295 = test system: SF-295
# 786-0 = test system: 786-0
# HCC 2998 = test system: HCC 2998
# U-251 = test system: U-251
# SK-MEL-28 = test system: SK-MEL-28
# MOLT-4 = test system: MOLT-4
# KM12 = test system: KM12
# EKVX = test system: EKVX
# K562 = test system: K562
# HOP-92 = test system: HOP-92
# SW-620 = test system: SW-620
# OVCAR-4 = test system: OVCAR-4
# SF-539 = test system: SF-539
SMILES,GI50 (M14),GI50 (OVCAR-3),GI50 (NCI-H23),GI50 (SK-MEL-2),GI50 (T47D),GI50 (UACC-62),GI50 (BT-549),GI50 (SF-295),GI50 (786-0),GI50 (HCC 2998),GI50 (U-251),GI50 (SK-MEL-28),GI50 (MOLT-4),GI50 (KM12),GI50 (EKVX),GI50 (K562),GI50 (HOP-92),GI50 (SW-620),GI50 (OVCAR-4),GI50 (SF-539)
CN(C)CCC(=O)N1C/C(=C\c2ccc(Cl)c(Cl)c2)C(=O)/C(=C/c2ccc(Cl)c(Cl)c2)C1,0.291 µM (active),0.448 µM (active),0.504 µM (active),1.63 µM (inactive),0.471 µM (active),0.608 µM (active),0.426 µM (active),0.274 µM (active),0.125 µM (active),0.321 µM (active),0.149 µM (active),0.618 µM (active),0.19 µM (active),0.279 µM (active),0.565 µM (active),0.038 µM (active),0.394 µM (active),0.102 µM (active),0.245 µM (active),0.274 µM (active)
CCN(CC)CCCNc1nncc2c(C)c3[nH]c4ccc(OC)cc4c3cc12,1.61 µM (inactive),0.604 µM (active),0.421 µM (active),1.02 µM (active),0.286 µM (active),1.29 µM (inactive),1.54 µM (inactive),1.55 µM (inactive),0.222 µM (active),0.65 µM (active),0.304 µM (active),0.766 µM (active),0.0173 µM (active),0.592 µM (active),2.11 µM (inactive),0.14 µM (active),0.369 µM (active),0.184 µM (active),0.618 µM (active),0.268 µM (active)
COc1ccc(C[C@@H]2OC3(C=CC(=O)C=C3)O[C@H]2Cc2ccc(OC)cc2)cc1,0.889 µM (active),0.673 µM (active),1.37 µM (inactive),1.38 µM (inactive),0.291 µM (active),1.72 µM (inactive),0.221 µM (active),2.99 µM (inactive),0.184 µM (active),1.52 µM (inactive),1.28 µM (inactive),1.71 µM (inactive),0.173 µM (active),1.91 µM (inactive),1.89 µM (inactive),0.61 µM (active),0.653 µM (active),0.114 µM (active),0.957 µM (active),1.14 µM (inactive)
C=CC(COC(=O)C(C)(C)OC(C)=O)c1ccc(OC(=O)C(C)C)c(OC)c1 (stereo not given),6.43 µM (inactive),4.76 µM (inactive),18.8 µM (inactive),9.62 µM (inactive),3.84 µM (inactive),11.8 µM (inactive),8.87 µM (inactive),4.23 µM (inactive),7.38 µM (inactive),3.66 µM (inactive),3.59 µM (inactive),5.19 µM (inactive),3.62 µM (inactive),4.07 µM (inactive),12.7 µM (inactive),30.5 µM (inactive),2.73 µM (inactive),4.84 µM (inactive),7.89 µM (inactive),11.8 µM (inactive)
Cc1c(Cl)c(C)c(Cl)c(O)c1Cl,20.5 µM (inactive),19.5 µM (inactive),28.1 µM (inactive),13.2 µM (inactive),24.8 µM (inactive),16.7 µM (inactive),24.3 µM (inactive),24.8 µM (inactive),43.3 µM (inactive),19.8 µM (inactive),16.3 µM (inactive),38.4 µM (inactive),17.1 µM (inactive),26.3 µM (inactive),26.4 µM (inactive),17.5 µM (inactive),19.1 µM (inactive),34.3 µM (inactive),26 µM (inactive),29 µM (inactive)
CC1(C)COC(c2ccccc2-c2ccccc2)=N1,> 100 µM (inactive),> 100 µM (inactive),88.5 µM (inactive),> 100 µM (inactive),83.2 µM (inactive),54.6 µM (inactive),> 100 µM (inactive),53.7 µM (inactive),> 100 µM (inactive),> 100 µM (inactive),89.5 µM (inactive),> 100 µM (inactive),> 100 µM (inactive),> 100 µM (inactive),72.1 µM (inactive),90.2 µM (inactive),> 100 µM (inactive),> 100 µM (inactive),> 100 µM (inactive),> 100 µM (inactive)
O=C1Oc2ccccc2C(=O)/C1=C/N1C(=O)/C(=C/c2ccc([N+](=O)[O-])cc2)SC1=S,22.8 µM (inactive),2.71 µM (inactive),14 µM (inactive),24 µM (inactive),5.98 µM (inactive),17.9 µM (inactive),7.16 µM (inactive),17.7 µM (inactive),30.5 µM (inactive),19.1 µM (inactive),18.9 µM (inactive),22.7 µM (inactive),29.8 µM (inactive),19 µM (inactive),54.1 µM (inactive),19.4 µM (inactive),1.08 µM (active),21.8 µM (inactive),20.8 µM (inactive),21.8 µM (inactive)
